# In a melting point compilation (Tetko et al.; mined from patent text by program, amines drawn as free bases though some values may be those of a salt):
row,melting point [°C],SMILES
1,176 to 184,COc1ccccc1CCNC(=S)Nc1nc2ccccc2[nH]1
2,160 to 162,CCCc1cc(C#N)sc1-c1ccc2c(c1)C(C)(C)OC(=O)N2
3,187 to 190,O=C(O)C1Oc2ccc3c(-c4ccccc4)noc3c2O1 (stereo not given)
4,128 to 130,Fc1cc(CC2(Cc3ccnc(F)c3)c3ccccc3-c3cccnc32)ccn1
5,71 to 73,Cc1ccc(-c2ccccc2)cc1C#N
6,148 to 149,CCCCNS(=O)(=O)CCCCn1c(COCC)nc2c(N)nc3ccccc3c21
7,158 to 159,CC(C)(C)OC(=O)N[C@H](Cc1ccc(C(F)(F)F)cc1)[C@@H](O)c1ccc(F)cc1 (racemic)
8,95,CCC(C)CNC(=O)c1ccc2c(c1)N(C(C)CN(C)CC)c1ccccc1S2 (mixture of isomers)
9,108 to 111,COc1cc(F)c(C2NCCc3ccsc32)cc1OC (stereo not given)
10,142 to 143,CCCCC(Cc1ccc(OCCNC(=O)c2ccc(-c3cccc(C(=O)O)c3)cc2)cc1)C(=O)O (stereo not given)
11,182,CC(=NCCO)c1ccccc1NC(=O)C(Cl)(Cl)Cl
12,120 to 122,CCOc1ccccc1N1CCN(C(=O)Nc2nc3ccccc3nc2OCC)CC1
13,125 to 126,Cc1nn(-c2ccccn2)c2c1C(O)CC(C)(C)C2 (stereo not given)
14,128 to 129,CCC(=O)N(C(=O)CC)c1nnc2c3c(c(N4CCCCC4)nn12)CCCC3
15,79,O=C1c2ccccc2C(O)N1CCCBr (stereo not given)
16,199 to 200,O=C(O)c1ccc2c(c1)C(=C(Cl)Cl)OC(=C(Cl)Cl)O2
17,275,CC(=O)Nc1ncc(/C=C/c2ncc(C(C)(C)C)o2)s1
18,134 to 135,Fc1ccc(-c2ccnc(Nc3ccc4c(c3)OCCO4)c2)cc1
19,129 to 131,COC(=O)Oc1sc(-c2ccc(F)cc2)nc(=O)c1-c1c(C)cc(C)cc1C
20,144 to 145,CCOC(=O)c1cccc(NC(=O)c2cc(C(C)C)c(C(C)C)o2)c1
21,80,CCOC(=O)[C@H](CCC1CCCCC1)N[C@@H]1COc2ccccc2N(Cc2ccc(C(C)C)cc2)C1=O
22,232,CC(C)n1nc(-c2c(OCCN3C(=O)c4ccccc4C3=O)nc(N)nc2-c2ccccc2)ccc1=O
23,171 to 172,COc1ccccc1N1CCN(CCCNC(=O)c2cccc3c(=O)c(C)c(C4(c5ccccc5)CCCC4)oc23)CC1

row,melting point [°C],SMILES
1,181 to 183,CCCCc1nc(C(O)(CC)CC)c(C(=O)O)n1Cc1ccc(-c2ccccc2-c2nnn[nH]2)cc1
2,218,CCCn1c(=O)n2cnnc2c2c1ncn2C
3,201 to 203,CCC(=O)NN(C(C)=O)[C@@H]1c2cc(C#N)ccc2OC(C)(C)[C@H]1O (relative stereo)
4,> 300,Cc1ccccc1NC(=O)Nn1c(=O)c(=O)[nH]c2ccccc21
5,97 to 98,Clc1ncc(OCc2ccccc2)c2ccccc12
6,111 to 112,CC(=O)OCC1=C(C(=O)OC(C)(C)C)N2C(=O)C(N)C2SC1 (stereo not given)
7,176 to 178,CC(=O)Nc1cccc(-c2cc3nc(-c4cccnc4N)n(-c4cccc(-c5cc(C)nc6ccc(NC(C)=O)cc56)c4)c3nc2-c2cccnc2)c1
8,147,O=C(NO)[C@H](CNS(=O)(=O)c1ccc(OCC2CC2)cc1)N1CCOCC1
9,186 to 188,Nc1cc(Cl)nc(Cl)c1N
10,294 to 296,Cc1cc2c(cc1C)-n1c(C)nnc1C=C(c1ccc(-n3c(C)nc4cnccc43)cc1)N2
11,260,CCN(CC)CCC(=O)NC1c2ccccc2-c2[nH]c(=O)c3nccn3c21 (stereo not given)
12,115 to 120,Nc1ccc(-n2cnn(-c3ccc(OC(F)(F)F)cc3)c2=O)cc1
13,142 to 144,CC(C)(C)[Si](C)(C)Oc1ccc2c(c1)oc(=O)c1c3ccc(O[Si](C)(C)C(C)(C)C)cc3sc21
14,132 to 134,CC(C)(C)OC(=O)Nc1cc(OCC2COC(C)(C)O2)c(C#Cc2ccccc2)cc1NC(=O)CC(=O)c1cccc(C#N)c1 (stereo not given)
15,152,Cn1c2c(c3ccccc31)Cc1ccccc1-2
16,66 to 68,CCC(CO)(c1cccs1)N(C)C (stereo not given)
17,197 to 198,CC(=O)c1ccc2c(c1)OCC(=O)N2
18,160 to 165,C[C@@H]1CN(CCCn2c3ccc(O)cc3c3c4c(c(-c5c(Cl)cccc5Cl)cc32)C(=O)NC4=O)C[C@H](C)N1
19,197 to 199,Cc1ccc(Oc2ccc(C(=O)N=C(N)N)cc2S(C)(=O)=O)cn1
20,139 to 140,COc1cc2c(cc1O)CCN(Cc1cccc(Oc3ccccc3)c1)C2
21,194,COc1ccc(Cl)c(Oc2c(C=O)nc(N3CCOCC3)nc2NS(=O)(=O)c2ccc(C(C)C)cn2)c1
22,192 to 194,O=CC(CC(=O)c1ccc(F)cc1)c1ccccc1 (stereo not given)
23,192,Cn1c(=O)cc(-c2cccc(Cl)c2)c2cc(C(=O)c3ccoc3)ccc21

row,melting point [°C],SMILES
1,260 to 262,COc1cccc2c1nc(C(F)F)n2-c1nc(Nc2ccc(Cl)nc2)nc(N2CCOCC2)n1
2,110 to 112,Cc1cnc(C(=O)NCCO[N+](=O)[O-])s1
3,105 to 106,CC(C)(C)OC(=O)CON=C(C(=O)O)c1ccco1
4,118 to 120,Clc1cccc(-c2nc(Cl)cc(Cl)n2)c1
5,75 to 77,Clc1ccc(Oc2c(-c3ccco3)sc3cnccc23)cc1
6,126 to 127,COc1cc(COc2nn(-c3ccccc3)cc2C(C[N+](=O)[O-])C[N+](=O)[O-])ccc1OCc1nc(-c2ccco2)oc1C
7,208 to 209,COC(=O)c1ccc2nc3scc(C)c3c(=O)n2c1
8,163 to 165,CC(=O)Nc1c(OC(C)=O)cc(C)cc1[N+](=O)[O-]
9,203 to 205,O=C1Nc2cccnc2N(C(=O)CN2CCCCC2CN2CCOCC2)c2ccccc21 (stereo not given)
10,249 to 251,CNC(=O)c1ccccc1S(=O)(=O)Cc1c(O[C@H](Cn2ccnc2)c2ccccc2)ccc2c1CCCC2=O
11,103 to 104,CC(C)c1c(O)ccc2cnc(Nc3ccccc3)nc12
12,87 to 89,Cc1noc2cc3c(cc12)C1(CO3)C(=O)N(Cc2nc(C(=O)N(C)C)co2)c2ccccc21 (stereo not given)
13,74 to 76,CN(CCOc1cccc2ccn(C(=O)OC(C)(C)C)c12)C(=O)OC(C)(C)C
14,216,O=C(NNC1NS(=O)(=O)c2ccccc21)Oc1ccccc1 (stereo not given)
15,195 to 196,CSc1cc2ccccc2cc1C=Cc1cc2ccccc2cc1SC
16,191 to 194,CCCCOCCOc1ccc(-c2ccc3c(c2)C=C(C(=O)Nc2ccc(CCCn4cnnc4)cc2)CCN3CCC)cc1
17,178 to 180,Cc1cc(Oc2ccc3nc(COc4ccc(CC5SC(=O)NC5=O)cc4)n(C)c3c2)cc(C)c1NC(=O)Nc1ccc([N+](=O)[O-])cc1 (stereo not given)
18,151 to 152,O=C1NC(=O)C(Cc2ccc(NC(=O)c3sc(Nc4ccccc4)c4c3CCc3cnoc3-4)cc2)S1 (stereo not given)
19,128 to 129,CCCOc1ccc(C(=O)CN2CCOCC2)cc1-c1nc2c(CCC)nn(C)c2c(=O)[nH]1
20,266 to 268,O=C1Nc2cc(C(F)(F)F)ccc2C1c1cc(Cl)ccc1O (stereo not given)
21,98.4,COc1cc(O)c(C(=O)C=Cc2ccco2)c(OC)c1
22,272 to 273,CC(=O)c1cc2c(s1)S(=O)(=O)CCc1cc(=O)n(-c3ccc(Cl)cc3)nc1-2
23,209 to 210,Cc1c(C)c2c(c(C)c1NC(=O)CC(C)(C)C)OC(C)(C)C2Cc1ccccc1 (stereo not given)

row,melting point [°C],SMILES
1,176 to 178,Cc1c(CCN(C)C(=O)OC(C)(C)C)c2cc(S(=O)(=O)c3cccc4ccccc34)ccc2n1C
2,114 to 116,CC(C)CC1(CCCCN2CCc3sccc3C2)C(=O)Nc2ccccc21 (stereo not given)
3,208 to 209,CC(O)C1COCc2nc3c(N)nc4ccccc4c3n21 (stereo not given)
4,81 to 82,O=C(NCCO[N+](=O)[O-])c1csc(C(F)(F)F)n1
5,117 to 119,Cn1cc(C(=O)Nc2ccccc2OC(F)(F)C(F)F)c(C(F)F)n1
6,159,O=C(CCCCCCNS(=O)(=O)c1ccc(C(=O)Nc2ccc(Cl)c(-c3ccccn3)c2)c(Cl)c1)NO
7,195 to 197,CCOC(=O)c1cccc(NC(=O)N2CCc3cc(SC)c(C(F)(F)F)cc32)c1
8,37.5,Cc1ccc(S(=O)(=O)OCP(=O)(OC(C)C)OC(C)C)cc1
9,205 to 206,COc1ccc(-c2cnc[nH]c2=O)cc1OC
10,206 to 207,CC1(C)C=C(C(=NC2CC2)NC#N)c2cc([N+](=O)[O-])ccc2O1
11,152 to 154,CCOC(=O)c1cc2c(C=O)c(OC[C@H]3CO3)ccc2[nH]1
12,135 to 138,COC(=O)c1cnc(N2CCN(Cc3ccccc3)CC2)nc1OC
13,173,O=C(NC(=O)c1ccccc1F)Nc1ccc(F)c(C(F)(F)F)c1Cl
14,126 to 127,CCS(=O)(=O)CCOc1cc(C)c(-c2cccc(COc3ccc(CCC(=O)O)c(F)c3)c2)c(C)c1
15,171 to 173,Cc1ccccc1NS(=O)(=O)c1cc([N+](=O)[O-])ccc1C
16,195 to 196,COC(=O)Cc1cc2ccc(OC)cc2[nH]c1=O
17,235 to 236,NN=C1C(=O)Nc2cccc(Cl)c21
18,56.5 to 57.5,CC(=O)/C=C(\C)c1ccc(C2CCCCC2)c(Cl)c1
19,223 to 226,CCCC(O)c1cc2c(=O)n(NS(C)(=O)=O)c(=O)[nH]c2cc1C(F)(F)F (stereo not given)
20,204,Cn1cc(C#N)c(Nc2ccc([N+](=O)[O-])cc2N)n1
21,172 to 173,Cc1cc(CN2CCC(N(C)S(=O)(=O)c3ccc(Nc4nccc(Nc5ccc(F)c(C)c5)n4)cc3)CC2)no1

row,SMILES,melting point [°C]
1,CN(CC(N)=O)C1Cc2ccccc2C1,122 to 123
2,CN1C(=O)CN=C(C2CCCCC2)c2ccccc21,98 to 100
3,CCC1=NC(=NOC(=O)NC)SC1(C)CC (stereo not given),88 to 90
4,CCC1N=C(c2ccccc2Cl)c2cc(CCC(=O)N3CCOCC3)sc2-n2c(C)nnc21 (stereo not given),145 to 147
5,CCCN(CCC)C1Cc2cccc3[nH]c(=S)n(c23)C1 (stereo not given),150 to 151
